Data as given in patent US10226448B2, “3-(1H-pyrrolo[3,2-C]pyridin-2-yl)-1H-pyrazolo[3,4-B]pyridines and therapeutic uses thereof” (Samumed, LLC, priority 2015, dated 2019).

Assays:
Assay type in all cases: cell-based
[1] = tested on: Wnt activity (Sp5-Luc reporter, TCF/LEF binding sites) in SW480 colon carcinoma cells; experiment: Wnt activity screening assay: Sp5-Luc reporter gene assay in SW480 cells; details: Homo sapiens; for EC50: Sp5-Luc reporter, SW480 cells, overnight incubation; for inhibition at 10 µM: SW480, read-out: percent inhibition at 10 μM
Description: The screening assay for Wnt activity is described as follows. Reporter cell lines can be generated by stably transducing cancer cell lines (e.g., colon cancer) or primary cells (e.g., IEC-6 intestinal cells) with a lentiviral construct that includes a Wnt-responsive promoter driving expression of the firefly luciferase gene.
SW480 colon carcinoma cells were transduced with a lentiviral vector expressing luciferase with a human Sp5 promoter consisting of a sequence of eight TCF/LEF binding sites. SW480 cells stably expressing the Sp5-Luc reporter gene and a hygromycin resistance gene were selected by treatment with 150 μg/mL of hygromycin for 7 days. These stably transduced SW480 cells were expanded in cell culture and used for all further screening activities. […] For Sp5-Luc reporter gene assays, the cells were plated at 4,000 cells/well in 384-well plates with medium containing 1% fetal bovine serum and incubated overnight at 37° C. and 5% CO2. Following incubation, 20 μl of BrightGlo luminescence reagent (Promega) was added to each well of the 384-well assay plates. The plates were placed on an orbital shaker for 2 min and then luminescence was quantified using the Envision (Perkin Elmer) plate reader. Readings were normalized to DMSO only treated cells, and normalized activities were utilized for EC50 calculations using the dose-response log (inhibitor) vs. response variable slope (four parameters) nonlinear regression feature available in GraphPad Prism 5.0 (or Dotmatics).

SW480 colon cancer cells = experiment: Cell viability assay (CellTiter-Blue) in SW480 colon cancer cells; details: Homo sapiens; for EC50: 96 h, SW480 cell viability, four days, CellTiter-Blue; for inhibition at 10 µM: SW480, read-out: percent inhibition at 10 μM
Method: Representative compounds were screened using the following assay procedure to assess the effect on cell viability as described below.
Approximately 2×10^3 SW480 colon cancer cells were seeded into each well and allowed to incubate in the presence or absence of compound for four days at 37° C./5% CO2. Eight replicates of DMSO-treated cells served as controls and cells treated with compound were performed in duplicate.
After incubation, 20 μL of CellTiter-Blue (Promega) was added to each well allowed to incubate for approximately 3 hours. This reagent was a buffered solution which contains resazurin, metabolically active cells were able to reduce rezarurin (blue) into resorufin (pink) which was highly fluorescent. This measured fluorescence was used as a readout for cell viability.

IL-6 in THP-1 cells = experiment: IL-6 inhibition in LPS-stimulated THP-1 human monocyte cells (HTRF); details: for EC50: IL-6 inhibition, LPS-stimulated THP-1 cells, HTRF, 10-point dose-response starting from 10 μM; for inhibition at 10 µM: THP-1, read-out: percentage in parentheses beside EC50 >10
Method: Compound Screening: THP-1 cells were cultured in basal media with 1% FBS for 24 hours before the start of the assay. […] THP-1 cells were plated at 5000 cells/well in the 384-well plates and incubated at 37° C. for 2 h. 500 ng/mL of LPS was added after 2 hours and cells were incubated for another 22 hours at 37° C. Plates were spun in a centrifuge for 1 minute at […] and a mixture of anti-IL6 XL665, and anti-IL6 Cryptate diluted in reconstitution buffer (Cisbio Inc.) was added to each well. Following incubation for 3 hrs at room temperature, Homogeneous Time-Resolved Fluorescence (HTRF) was measured using the Envision (Perkin Elmer) at 665 nm and […]. The ratio of fluorescence at 665 nm to 620 nm was used as a readout for IL6 quantification. All samples were processed in duplicate. Readings were normalized to DMSO treated cells and normalized activities were utilized for EC50 calculations using the dose-response log (inhibitor) vs. response variable slope (four parameters) nonlinear regression feature available in GraphPad Prism 5.0 (or Dotmatics).

[2] = tested on: primary human mesenchymal stem cells (hMSCs); experiment: Induction of chondrogenesis in primary human mesenchymal stem cells (chondrogenic nodules, Rhodamine B / Nile Red); details: 6 days; for EC50: concentration required to induce 50% levels of chondrogenesis vs TGF-β3, read-out: Conc (nM) of 50% TGF-β3 activity; for Emax: relative to TGF-β3 (10 ng/mL) positive control, read-out: Max. Activity as % TGF-β3 activity
Description: Representative compounds were screened using primary human mesenchymal stem cells (hMSCs) to determine their ability to induce chondrogenesis (process by which cartilage is developed).
Human Mesenchymal Stem Cell Culture: Primary human mesenchymal stem cells (hMSCs) were purchased from Lonza (Walkersville, Md.) and expanded in Mesenchymal Stem Cell Growth Media (Lonza). Cells between passage 3 and 6 were used for the experiments.
To image chondrogenic nodules, the cells were fixed using 4% formaldehyde (Electron Microscopy Sciences), and stained with 2 μg/mL Rhodamine B (Sigma-Aldrich) and 20 μM Nile Red (Sigma-Aldrich) [Johnson K., et. al, A Stem Cell-Based Approach to Cartilage Repair, Science, (2012). […] Number of nodules in each well was normalized to the average of 3 DMSO treated wells on the same plate using Excel (Microsoft Inc.). The normalized averages (fold change over DMSO) of 3 replicate wells for each compound concentration were calculated. Due to solubility limitations of some of the compounds, curve fitting was incomplete leading to inaccurate EC50 determinations.
Using TGF-β3 as a positive control, the concentration of representative compounds required to induce 50% levels of chondrogenesis is reported. In addition, the maximum activity of each compound and the respective dose that each compound reached maximum chondrogenesis activity is reported.

[3] = tested on: LL29 cells (primary human fibroblasts derived from IPF patients), α-smooth muscle actin; experiment: Inhibition of the fibrotic process: αSMA staining in TGF-β1 treated primary human fibroblasts from IPF patients (LL29 cells); details: Fibroblast; for EC50: 96 h, LL29 cells, TGF-β1 20 ng/mL, 4 days, % αSMA positive cells; for inhibition at 10 µM: read-out: percent inhibition at 10 μM
Method: Representative compounds were screened using primary human fibroblasts (derived from IPF patients) treated with TGF-β1 to determine their ability to inhibit the fibrotic process.
LL29 cells are plated at 1,500 cells/well in 80 μL/well F12 medium supplemented with 1% Fetal Bovine Serum. […] Wells treated with TGF-β1 and containing DMSO were used as controls. […] Following incubation for 4 days, SYTOX green nucleic acid stain (Life Technologies [Thermo Fisher Scientific]) was added to the wells at a final concentration of 1 μM and incubated at room temperature for 30 min.

Compound | EC50 [1] [nM] | EC50 (SW480 colon cancer cells) [nM] | EC50 (IL-6 in THP-1 cells) [nM] | EC50 [2] [nM] | Emax [2] [%] | EC50 [3] [nM] | inhibition at 10 µM [1] [%] | inhibition at 10 µM (IL-6 in THP-1 cells) [%] | inhibition at 10 µM (SW480 colon cancer cells) [%] | inhibition at 10 µM [3] [%]
CCC(=O)Nc1cncc(-c2cnc3[nH]nc(-c4cc5c(-c6cccc(F)c6)nccc5[nH]4)c3c2)c1 [Compound 1, N-(5-(3-(4-(3-Fluorophenyl)-1H-pyrrolo[3,2-c]pyridin-2-yl)-1H-pyrazolo[3,4-b]pyridin-5-yl)pyridin-3-yl)propionamide] | 272 | 630 | 242 | 300 | 114 | 606 |  |  |  | 
Fc1cccc(-c2nccc3[nH]c(-c4n[nH]c5ncc(-c6cccnc6)cc45)cc23)c1 [Compound 4, 3-(4-(3-Fluorophenyl)-1H-pyrrolo[3,2-c]pyridin-2-yl)-5-(pyridin-3-yl)-1H-pyrazolo[3,4-b]pyridine] | 464 | 3210 | 90 |  | 50 | 440 |  |  |  | 
CC(C)C(=O)Nc1cncc(-c2cnc3[nH]nc(-c4cc5c(-c6cccc(F)c6)nccc5[nH]4)c3c2)c1 [Compound 9, N-(5-(3-(4-(3-Fluorophenyl)-1H-pyrrolo[3,2-c]pyridin-2-yl)-1H-pyrazolo[3,4-b]pyridin-5-yl)pyridin-3-yl)isobutyramide] | 575 | 770 | 206 |  | 29 | 622 |  |  |  | 
CN(C)Cc1cncc(-c2cnc3[nH]nc(-c4cc5c(-c6cccc(F)c6)nccc5[nH]4)c3c2)c1 [Compound 13, 1-(5-(3-(4-(3-Fluorophenyl)-1H-pyrrolo[3,2-c]pyridin-2-yl)-1H-pyrazolo[3,4-b]pyridin-5-yl)pyridin-3-yl)-N,N-dimethylmethanamine] | 3260 | 773 | 6420 | 10 | 110 | 2440 |  |  |  | 
CC(C)CC(=O)Nc1cncc(-c2cnc3[nH]nc(-c4cc5c(-c6ccc(F)cc6)nccc5[nH]4)c3c2)c1 [Compound 30, N-(5-(3-(4-(4-Fluorophenyl)-1H-pyrrolo[3,2-c]pyridin-2-yl)-1H-pyrazolo[3,4-b]pyridin-5-yl)pyridin-3-yl)-3-methylbutanamide] | 996 | 523 | 1550 |  | 107 | 261 |  |  |  | 
CC(C)(C)C(=O)Nc1cncc(-c2cnc3[nH]nc(-c4cc5c(-c6ccc(F)cc6)nccc5[nH]4)c3c2)c1 [Compound 36, N-(5-(3-(4-(4-Fluorophenyl)-1H-pyrrolo[3,2-c]pyridin-2-yl)-1H-pyrazolo[3,4-b]pyridin-5-yl)pyridin-3-yl)pivalamide] | 980 | 553 | 3230 |  | 44 | 579 |  |  |  | 
Fc1ccc(-c2nccc3[nH]c(-c4n[nH]c5ncc(-c6cncc(CN7CCCC7)c6)cc45)cc23)cc1 [Compound 42, 3-(4-(4-Fluorophenyl)-1H-pyrrolo[3,2-c]pyridin-2-yl)-5-(5-(pyrrolidin-1-ylmethyl)pyridin-3-yl)-1H-pyrazolo[3,4-b]pyridine] | 1570 | 535 | 3990 | 10 | 105 | 720 |  |  |  | 
CCCCC(=O)Nc1cncc(-c2cnc3[nH]nc(-c4cc5c(-c6ccc(F)cc6)nccc5[nH]4)c3c2)c1 [Compound 47, N-(5-(3-(4-(4-Fluorophenyl)-1H-pyrrolo[3,2-c]pyridin-2-yl)-1H-pyrazolo[3,4-b]pyridin-5-yl)pyridin-3-yl)pentanamide] | > 10000 | 839 | > 10000 | 30 | 85 | 73 | 46.9 | 24.7 |  | 
CS(=O)(=O)NCc1cc(F)cc(-c2nccc3[nH]c(-c4n[nH]c5ncc(-c6cncc(CNCc7ccccc7)c6)cc45)cc23)c1 [Compound 500, N-(3-(2-(5-(5-((Benzylamino)methyl)pyridin-3-yl)-1H-pyrazolo[3,4-b]pyridin-3-yl)-1H-pyrrolo[3,2-c]pyridin-4-yl)-5-fluorobenzyl)methanesulfonamide] | > 10000 | > 10000 | > 10000 |  |  | > 10000 | 19.1 | 31.3 | 23.4 | 18.3
Fc1cccc(-c2nccc3[nH]c(-c4n[nH]c5ncc(C6CCNCC6)cc45)cc23)c1 [Compound 505, 3-(4-(3-Fluorophenyl)-1H-pyrrolo[3,2-c]pyridin-2-yl)-5-(piperidin-4-yl)-1H-pyrazolo[3,4-b]pyridine] | 3850 | 4470 | 3450 |  |  | 5550 |  |  |  | 
c1cc2[nH]c(-c3n[nH]c4ncc(-c5cncc(OC6CCCCC6)c5)cc34)cc2c(N2CCCCC2)n1 [Compound 607, 5-(5-(Cyclohexyloxy)pyridin-3-yl)-3-(4-(piperidin-1-yl)-1H-pyrrolo[3,2-c]pyridin-2-yl)-1H-pyrazolo[3,4-b]pyridine] | 3980 | 3540 | 7280 |  |  | 1990 |  |  |  | 
CN1CCN(c2nccc3[nH]c(-c4n[nH]c5ncc(-c6cncc(NC(=O)CC7CCNCC7)c6)cc45)cc23)CC1 [Compound 641, N-(5-(3-(4-(4-Methylpiperazin-1-yl)-1H-pyrrolo[3,2-c]pyridin-2-yl)-1H-pyrazolo[3,4-b]pyridin-5-yl)pyridin-3-yl)-2-(piperidin-4-yl)acetamide] | > 10000 | > 10000 | > 10000 |  |  | > 10000 | 0 | 7.6 | 6.5 | 0
Oc1cncc(-c2cnc3[nH]nc(-c4cc5c(-c6cccs6)nccc5[nH]4)c3c2)c1 [Compound 709, 5-(3-(4-(Thiophen-2-yl)-1H-pyrrolo[3,2-c]pyridin-2-yl)-1H-pyrazolo[3,4-b]pyridin-5-yl)pyridin-3-ol] | 768 | 2480 | > 10000 |  |  | 289 |  | 48.9 |  | 
